For 2 molecules, IC50 results are on record in ChEMBL document CHEMBL1148033, “Four new C16 1,2-dioxene-polyketides from the sponge Plakortis aff. simplex” (J Nat Prod, 1993).

The subject of this assay is P388. Description: Cytotoxicity against mouse P388 cells. It is filed as functional, cell-based.

In general, IC50 refers to the midpoint of a concentration-inhibition curve. `CCCC1C=CC(CCC[C@]2(OC)C=C[C@@H](CC(=O)OC)OO2)OO1` (some centres not stated) displayed a 50% inhibitory concentration (IC50) below 0.1 µg/mL.
Next, `CCC/C=C/C=C/CCC[C@]1(OC)C=C[C@@H](CC(=O)OC)OO1`: below 0.1 µg/mL.
